Values of other authors, collected in US7932258B2, “Use of a partially neutralized, anionic (meth) acrylate copolymer as a coating for the production of a medicament pharmaceutical form releasing active substance at reduced pH values” (Evonik Roehm GmbH, priority 2005, dated 2011).

Conditions: pH 4.0

Solubility and stability of the active substance: adequately soluble and stable
SMILES: CC(=O)Oc1ccccc1C(=O)O [Acetylsalicylic acid]
